The record followed here is PMC2852844, “Anti-Parasitic Compounds from Streptomyces sp. Strains Isolated from Mediterranean Sponges” (Marine Drugs, 2010).

The test system of data set [1] is Trypanosoma brucei brucei laboratory strain TC 221. Put plainly: Trypanosoma brucei brucei trypomastigote growth inhibition (Alamar Blue). It is filed as cell-based. The method, then:
[22] Trypomastigote forms of Trypanosoma brucei brucei laboratory strain TC 221 were cultured in complete Baltz medium [80 mL Baltz medium basic solution, 0.8 mL 2 mercaptoethanol stock solution (20 mM), 0.8 mL penicillin/streptomycin (10,000 U/mL), 16 mL FCS (inactivated for 30 min at 56 °C). Baltz medium basic solution is composed of the following: 500 mL MEM with Earle’s salts and L-glutamine, 3 g Hepes, 0.5 g monohydrate glucose, 0.110 g sodium pyruvate, 0.007 g hypoxanthine, 0.002 g thymidine, 0.0107 g adenosine, 0.0141 g bathocuproine disulfonic acid disodium salt, 0.146 g glutamine, 5 mL sterile non-essential amino acid concentrate (100×, pH 7.5). A defined number of parasites ([…]) were exposed in test chambers of 96-well plates to various concentrations of the test substances (previously dissolved in DMSO) to make a final volume of 200 μL in duplicates. Positive (trypanosomes in culture medium) and negative controls (test substance without trypanosomes) were run simultaneously with each plate. The plates were then incubated at 37 °C in an atmosphere of 5% CO2 for a total time period of 72 h. After 24 h, 20 μL of Alamar Blue was added. […]. The first reading was done at 48 h and subsequently at 72 h. The effect of the test substances was quantified in IC50 values by linear interpolation of three independent measurements.
A general note: Alamar Blue is a resazurin reagent that responds to reducing activity.

A short description of the next data set: in vitro. The settings on record: human.
For data set [2], the system named is Leishmania major promastigotes. Put plainly: Leishmania major promastigote growth inhibition (Alamar Blue). Type of data set: cell-based.
Protocol: Leishmania major promastigotes were seeded at a cell density of 1 × 10^7 cells/mL into 96-well plates in complete medium (RPMI with NaHCO3, 10% FCS, 2 mM glutamine, 10 mM Hepes pH 7.2, 100 U/mL penicillin, 50 μg/mL gentamicin, 50 mM 2-mercaptoethanol) without phenol red (200 mL), in the absence or presence of different concentrations of the compounds. These were then incubated for 24 h at 26 °C, 5% CO2 and 95% humidity. Following the addition of 20 mL of Alamar Blue, the plates were incubated again and the optical densities (ODs) measured 24 h and 48 h later with an enzyme-linked immunosorbent assay (ELISA) reader (Multiskan Ascent, Germany) using a test wavelength of 540 nm and a reference wavelength of 630 nm. Absorbance in the absence of compounds was set as 100% of growth. Amphotericin B was used as a reference compound and positive control. The effects of cell density, incubation time and the concentration of DMSO were examined in control experiments. The final concentration of DMSO in the medium never exceeded 1% vol/vol and had no effect on the proliferation of extracellular or intracellular parasites. For each experiment, each drug concentration was assayed in duplicate wells [31]
Data set [3] is described as follows: Cytotoxicity against J774.1 macrophages (Alamar Blue). The settings on record: mouse.
Protocol: (§1) Following the addition of 20 μL of Alamar Blue, the plates were incubated and the ODs measured at 24 h, 48 h and 72 h.
The nature of data set [4]: Cytotoxicity against 293T kidney epithelial cells (Alamar Blue). The settings on record: human.
Protocol: as §1

Like-named read-outs stand apart in the source and are kept apart here.

Protocol for in vitro: as §1

As a reminder, the IC50 is the concentration at which inhibition is half-maximal. As to `CN[C@@H]1C[C@H]2O[C@@](C)([C@@H]1OC)n1c3ccccc3c3c4c(c5c6ccccc6n2c5c31)C(=O)NC4` [staurosporine], the IC50 in data set [1] (reading at 48 h, read-out: IC50 Trypanosoma brucei brucei (48 h)) amounted to 0.022 µM; in data set [1] (reading at 72 h, read-out: IC50 Trypanosoma brucei brucei (72 h)) it was 0.035 µM; in “in vitro” it was 1.3 µM.
Regarding `CC(C)[C@@H]1NC(=O)[C@H](C)OC(=O)[C@@H](C(C)C)NC(=O)[C@@H](C(C)C)OC(=O)[C@H](C(C)C)NC(=O)[C@H](C)OC(=O)[C@@H](C(C)C)NC(=O)[C@@H](C(C)C)OC(=O)[C@H](C(C)C)NC(=O)[C@H](C)OC(=O)[C@@H](C(C)C)NC(=O)[C@@H](C(C)C)OC1=O` [valinomycin], the IC50 in data set [2] was less than 0.11 µM; in data set [1] (48 h, read-out: IC50 Trypanosoma brucei brucei (48 h)) it was 0.0032 µM; in data set [1] (72 h, read-out: IC50 Trypanosoma brucei brucei (72 h)), 0.0036 µM. Also, the IC50 at 24 h in data set [3] is less than 0.1 µM; in data set [4] it was 11.2 µM.
